Results published in PubChem BioAssay AID256 (DTP/NCI, 2004).
Toxic doses and inconclusive results are not listed. How the source made its calls: active means survival T/C of 150% or more; inactive means T/C below 125% in these data.

Tested on: CD2F1 mice, L1210 leukemia ip, survival T/C
Assay: NCI In Vivo Anticancer Drug Screen. Data for tumor model L1210 Leukemia (intraperitoneal) in CD2F1 (CDF1) mice
Details: higher = longer survival
Outline: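 Read-out first: treated-group measurement over vehicle-control measurement, expressed as a ratio. Animals bore a transplanted tumor line and were dosed with compound or vehicle.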

[1] = endpoint: mean survival time, dose: 100.0 mg/kg/injection, schedule: Q04DX003 (ip), vehicle: saline with Tween-80
[2] = endpoint: mean survival time, dose: 200.0 mg/kg/injection, schedule: Q04DX003 (ip), vehicle: saline with Tween-80
[3] = endpoint: mean survival time, dose: 400.0 mg/kg/injection, schedule: Q04DX003 (ip), vehicle: saline with Tween-80
[4] = endpoint: mean survival time, dose: 50.0 mg/kg/injection, schedule: Q01DX001 (ip), vehicle: saline with Tween-80
[5] = endpoint: mean survival time, dose: 100.0 mg/kg/injection, schedule: Q01DX001 (ip), vehicle: saline with Tween-80
[6] = endpoint: mean survival time, dose: 200.0 mg/kg/injection, schedule: Q01DX001 (ip), vehicle: saline with Tween-80
[7] = endpoint: mean survival time, dose: 50.0 mg/kg/injection, schedule: Q01DX009 (ip), vehicle: saline with Tween-80
[8] = endpoint: mean survival time, dose: 100.0 mg/kg/injection, schedule: Q01DX009 (ip), vehicle: saline with Tween-80
[9] = endpoint: mean survival time, dose: 200.0 mg/kg/injection, schedule: Q01DX009 (ip), vehicle: saline with Tween-80

Measured: T/C

COc1cc(CNCc2ccccc2)ccc1O
inactive: endpoint: mean survival time, dose: 75.0 mg/kg/injection, schedule: Q01DX001 (ip), vehicle: other 90 % of control | endpoint: mean survival time, dose: 150.0 mg/kg/injection, schedule: Q01DX001 (ip), vehicle: other 93 % of control | endpoint: mean survival time, dose: 300.0 mg/kg/injection, schedule: Q01DX001 (ip), vehicle: other 95 % of control

CCCSCC(C)C
inactive: [1] 102 % of control | [2] 93 % of control | [3] 108 % of control

CC1=CC(=O)C(CCC#N)C(C)(C)C1 (centres undefined)
inactive: endpoint: mean survival time, dose: 100.0 mg/kg/injection, schedule: Q04DX002 (ip), vehicle: saline with Tween-80 91 % of control

C#CC(=O)c1ccccc1
inactive: endpoint: mean survival time, dose: 9.4 mg/kg/injection, schedule: Q04DX003 (ip), vehicle: saline 93 % of control

COC(=O)CNC(=O)C(Cc1ccc(OCc2ccccc2)cc1)NC(=O)OC(C)(C)C (centres undefined)
inactive: [1] 91 % of control | [2] 91 % of control | [3] 95 % of control

Cc1c(/C=N/NC=O)[nH]c(=O)[nH]c1=O
inactive: endpoint: mean survival time, dose: 100.0 mg/kg/injection, schedule: Q01DX001 (ip), vehicle: saline 89 % of control | endpoint: mean survival time, dose: 200.0 mg/kg/injection, schedule: Q01DX001 (ip), vehicle: saline 91 % of control | endpoint: mean survival time, dose: 400.0 mg/kg/injection, schedule: Q01DX001 (ip), vehicle: saline 86 % of control

Cc1noc(C)c1CC1(c2ccccc2)CCCCC1=O (centres undefined)
inactive: endpoint: mean survival time, dose: 100.0 mg/kg/injection, schedule: Q01DX001 (ip), vehicle: Klucel (hydroxypropylcellulose) (HPC) 92 % of control | endpoint: mean survival time, dose: 200.0 mg/kg/injection, schedule: Q01DX001 (ip), vehicle: Klucel (hydroxypropylcellulose) (HPC) 92 % of control | endpoint: mean survival time, dose: 400.0 mg/kg/injection, schedule: Q01DX001 (ip), vehicle: Klucel (hydroxypropylcellulose) (HPC) 86 % of control

CC(=O)Nc1ccc([N+](=O)[O-])c(C(F)(F)F)c1
inactive: [1] 98 % of control | [2] 103 % of control

COC1OC(CO)C(O)C1n1cnc2c(=O)[nH]c(N)nc21 (centres undefined)
inactive: [4] 97 % of control | [5] 95 % of control | [6] 97 % of control

CCCCCCCCCCC(Sc1n[nH]c(=O)[nH]c1=O)C(=O)OCC (centres undefined)
inactive: endpoint: mean survival time, dose: 12.5 mg/kg/injection, schedule: Q01DX005 (ip), vehicle: distilled water + Tween-80 97 % of control | endpoint: mean survival time, dose: 25.0 mg/kg/injection, schedule: Q01DX005 (ip), vehicle: distilled water + Tween-80 97 % of control | endpoint: mean survival time, dose: 50.0 mg/kg/injection, schedule: Q01DX005 (ip), vehicle: distilled water + Tween-80 95 % of control | endpoint: mean survival time, dose: 100.0 mg/kg/injection, schedule: Q01DX005 (ip), vehicle: distilled water + Tween-80 95 % of control | endpoint: mean survival time, dose: 200.0 mg/kg/injection, schedule: Q01DX005 (ip), vehicle: distilled water + Tween-80 97 % of control

CCCCN=[N+]=[N-]
inactive: endpoint: mean survival time, dose: 25.0 mg/kg/injection, schedule: Q01DX009 (ip), vehicle: water 94 % of control | endpoint: mean survival time, dose: 100.0 mg/kg/injection, schedule: Q01DX009 (ip), vehicle: water 96 % of control | endpoint: mean survival time, dose: 200.0 mg/kg/injection, schedule: Q01DX009 (ip), vehicle: water 91 % of control

CC(C)(Nc1ccccc1)c1cccs1
inactive: [1] 101 % of control | [2] 97 % of control | [3] 112 % of control

CCOC(=O)C(C(=O)OCC)C1CCS(=O)(=O)C1 (centres undefined)
inactive: [1] 95 % of control | [2] 97 % of control | [3] 95 % of control

CC(C(=O)OC1CCCC2OC12)S(=O)(=O)c1ccccc1 (centres undefined)
inactive: [7] 90 % of control | [8] 94 % of control | [9] 94 % of control

CCC(=O)Nc1ccccc1OS(=O)(=O)N(C)C
inactive: [2] 97 % of control | [3] 98 % of control

O=c1c2ccsc2ncn1C1OC(CO)C(O)C1O (centres undefined)
inactive: endpoint: mean survival time, dose: 12.5 mg/kg/injection, schedule: Q01DX009 (ip), vehicle: saline with Tween-80 111 % of control | endpoint: mean survival time, dose: 25.0 mg/kg/injection, schedule: Q01DX009 (ip), vehicle: saline with Tween-80 111 % of control | [7] 91 % of control

Cc1ccc(C(=O)OCCN2CCOCC2)c([N+](=O)[O-])c1OCc1ccccc1
inactive: endpoint: mean survival time, dose: 100.0 mg/kg/injection, schedule: Q04DX002 (ip), vehicle: other 94 % of control | endpoint: mean survival time, dose: 200.0 mg/kg/injection, schedule: Q04DX002 (ip), vehicle: other 103 % of control | endpoint: mean survival time, dose: 400.0 mg/kg/injection, schedule: Q04DX002 (ip), vehicle: other 91 % of control

O=C1C(Br)=CC2C1C1C=CC2(Br)C1=O (centres undefined)
inactive: [4] 109 % of control | [5] 103 % of control | [6] 101 % of control

CCCCNCCCNCCCNC(=O)c1csc(-c2csc(CCNC(=O)C(NC(=O)C(C)C(O)C(C)NC(=O)C(NC(=O)c3nc(C(CC(N)=O)NCC(N)C(N)=O)nc(N)c3C)C(OC3OC(CO)C(O)C(O)C3OC3OC(CO)C(O)C(OC(N)=O)C3O)c3cnc[nH]3)C(C)O)n2)n1 (centres undefined)
inactive: endpoint: mean survival time, dose: 2.5 mg/kg/injection, schedule: Q01DX009 (ip), vehicle: saline 101 % of control | endpoint: mean survival time, dose: 5.0 mg/kg/injection, schedule: Q01DX009 (ip), vehicle: saline 101 % of control | endpoint: mean survival time, dose: 10.0 mg/kg/injection, schedule: Q01DX009 (ip), vehicle: saline 114 % of control | endpoint: mean survival time, dose: 20.0 mg/kg/injection, schedule: Q01DX009 (ip), vehicle: saline 104 % of control | endpoint: mean survival time, dose: 40.0 mg/kg/injection, schedule: Q01DX009 (ip), vehicle: saline 104 % of control

Cc1nccn1C(C)c1ccccc1 (centres undefined)
inactive: endpoint: mean survival time, dose: 10.0 mg/kg/injection, schedule: Q04DX003 (ip), vehicle: saline 105 % of control | endpoint: mean survival time, dose: 20.0 mg/kg/injection, schedule: Q04DX003 (ip), vehicle: saline 94 % of control | endpoint: mean survival time, dose: 40.0 mg/kg/injection, schedule: Q04DX003 (ip), vehicle: saline 92 % of control

CC(=O)NC(C)(C)C
inactive: [1] 98 % of control | [2] 106 % of control | [3] 104 % of control

O=C1CCn2cccc21
inactive: endpoint: median survival time, dose: 25.0 mg/kg/injection, schedule: Q04DX002 (ip), vehicle: saline 100 % of control | endpoint: median survival time, dose: 50.0 mg/kg/injection, schedule: Q04DX002 (ip), vehicle: saline 100 % of control | endpoint: median survival time, dose: 100.0 mg/kg/injection, schedule: Q04DX002 (ip), vehicle: saline 100 % of control | endpoint: median survival time, dose: 200.0 mg/kg/injection, schedule: Q04DX002 (ip), vehicle: saline 100 % of control

N#C[SH2+].N#C[SH2+].N#C[SH2+].N#C[SH2+].[Cu+2].c1ccc(C[P+](c2ccccc2)(c2ccccc2)c2ccccc2)cc1
inactive: endpoint: mean survival time, dose: 6.0 mg/kg/injection, schedule: Q04DX003 (ip), vehicle: saline 91 % of control | endpoint: mean survival time, dose: 12.0 mg/kg/injection, schedule: Q04DX003 (ip), vehicle: saline 89 % of control | endpoint: mean survival time, dose: 25.0 mg/kg/injection, schedule: Q04DX003 (ip), vehicle: saline 96 % of control

COc1ccc2c(Cc3ccc(O)cc3)cncc2c1O
inactive: endpoint: mean survival time, dose: 75.0 mg/kg/injection, schedule: Q01DX001 (ip), vehicle: saline 100 % of control | endpoint: mean survival time, dose: 150.0 mg/kg/injection, schedule: Q01DX001 (ip), vehicle: saline 106 % of control | endpoint: mean survival time, dose: 300.0 mg/kg/injection, schedule: Q01DX001 (ip), vehicle: saline 98 % of control

O=C(O)c1ccccc1C(=O)Nc1cccc(Cl)c1
inactive: endpoint: mean survival time, dose: 100.0 mg/kg/injection, schedule: Q04DX003 (ip), vehicle: Klucel (hydroxypropylcellulose) (HPC) 110 % of control | endpoint: mean survival time, dose: 200.0 mg/kg/injection, schedule: Q04DX003 (ip), vehicle: Klucel (hydroxypropylcellulose) (HPC) 93 % of control | endpoint: mean survival time, dose: 400.0 mg/kg/injection, schedule: Q04DX003 (ip), vehicle: Klucel (hydroxypropylcellulose) (HPC) 98 % of control

O=C(O)c1c(F)c(F)c(-c2c(F)c(F)c(C(=O)O)c(C(=O)O)c2F)c(F)c1C(=O)O
inactive: [5] 95 % of control | [6] 96 % of control

CN(C)CCOc1ccccn1
inactive: [8] 93 % of control | [1] 92 % of control | [9] 95 % of control | [2] 87 % of control | endpoint: mean survival time, dose: 400.0 mg/kg/injection, schedule: Q01DX009 (ip), vehicle: saline with Tween-80 87 % of control | [3] 87 % of control

O=[N+]([O-])c1cc(P(=O)(O)O)c(Cl)cc1Cl
inactive: endpoint: mean survival time, dose: 50.0 mg/kg/injection, schedule: Q04DX003 (ip), vehicle: saline 101 % of control | endpoint: mean survival time, dose: 100.0 mg/kg/injection, schedule: Q04DX003 (ip), vehicle: saline 90 % of control | endpoint: mean survival time, dose: 200.0 mg/kg/injection, schedule: Q04DX003 (ip), vehicle: saline 93 % of control

CC(/C=N/NC(N)=S)Cc1ccc(C(C)C)cc1 (centres undefined)
inactive: endpoint: mean survival time, dose: 3.12 mg/kg/injection, schedule: Q01DX009 (ip), vehicle: acetone 104 % of control | endpoint: mean survival time, dose: 6.25 mg/kg/injection, schedule: Q01DX009 (ip), vehicle: acetone 104 % of control | endpoint: mean survival time, dose: 12.5 mg/kg/injection, schedule: Q01DX009 (ip), vehicle: acetone 104 % of control

CCCCOC(=O)C(C)OC(=O)Nc1cccc(Cl)c1 (centres undefined)
inactive: [1] 100 % of control | [2] 101 % of control | [3] 97 % of control

Cc1ccc(C)c(C(=O)c2ccccc2C(N)=O)c1
inactive: [7] 94 % of control | [8] 92 % of control | [9] 88 % of control
